This note sets out measurements from patent US20230234931A1, “NON-STEROIDAL ANTI-INFLAMMATORY COMPOUNDS” (University of Houston System, priority 2022, published 2023).

Experiment [1] addresses T1, COX-2-10aa-mPGES-1 (Homo sapiens, UniProt O14684+P35354).
T1 construct: COX-2 (fusion partner); gene PTGS2, human entry P35354 by own knowledge; expressed in transfected cells; host or cells: HEK293
T1 sequence (P35354+O14684 with tags, fused parts or gaps): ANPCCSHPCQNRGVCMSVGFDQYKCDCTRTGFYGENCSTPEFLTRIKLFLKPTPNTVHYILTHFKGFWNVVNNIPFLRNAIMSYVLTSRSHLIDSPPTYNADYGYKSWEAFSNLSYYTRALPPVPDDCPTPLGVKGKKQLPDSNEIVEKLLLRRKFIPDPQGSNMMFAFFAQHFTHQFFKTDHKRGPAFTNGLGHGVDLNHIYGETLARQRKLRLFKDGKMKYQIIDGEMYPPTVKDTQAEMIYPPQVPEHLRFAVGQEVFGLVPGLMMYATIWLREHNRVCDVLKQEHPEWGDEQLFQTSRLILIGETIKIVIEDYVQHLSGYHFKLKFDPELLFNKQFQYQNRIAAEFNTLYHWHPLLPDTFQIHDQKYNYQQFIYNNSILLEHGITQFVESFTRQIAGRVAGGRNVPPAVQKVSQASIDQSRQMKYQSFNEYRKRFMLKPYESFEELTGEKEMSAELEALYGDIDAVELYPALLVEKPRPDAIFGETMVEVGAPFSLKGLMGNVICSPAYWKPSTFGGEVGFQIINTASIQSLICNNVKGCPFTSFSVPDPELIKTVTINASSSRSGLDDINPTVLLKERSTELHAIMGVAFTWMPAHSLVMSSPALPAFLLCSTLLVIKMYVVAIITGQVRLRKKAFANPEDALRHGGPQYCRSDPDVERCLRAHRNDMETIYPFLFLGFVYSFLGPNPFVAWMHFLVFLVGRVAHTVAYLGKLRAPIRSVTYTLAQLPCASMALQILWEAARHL
In words: Inhibition of PGE2 production in HEK293 cells expressing Enzymelink COX-2-10aa-mPGES-1. The format is cell-based. The conditions noted are these: HEK-293 cells, 1, 3 and 10 μM, arachidonic acid 0.5 μM, PGE2 by ELISA, compared with NS-398 (FIG. 9). How it is done:
FIG. 9. Dose response curves for the effects of the synthesized derivatives on mPGES-1-synthesized inflammatory PGE2, compared with COX-2 inhibitor. HEK-293 cells expressing inflammatory PGE-producing Enzymelink, COX-2-10aa-mPGES-1 described previously (11) were treated with increasing concentrations (1 μM, 3 μM, and 10 μM), of the derivatives. Arachidonic acid (0.5 μM) was added to initiate the biosynthesis of PGE2 through COX-2 and mPGES-1 catalysis (11). The produced PGE2 was detected by ELISA (11). COX-2 inhibitor, NS-398 was used as positive control. An unrelated chemical compound (#6) was used as a negative control.
COX linked PG synthase cDNAs of the hybrid enzyme COX-2 C-terminus was linked to the PGES N-terminus with 10 amino acids (COX-2-10aa-PGES) was constructed by a polymerase chain reaction (PCR) cloning approach. The resultant cDNA was sub-cloned into pcDNATM3.1 vectors containing a cytomegalovirus immediate-early promoter (11, 16).
The recombinant enzyme was expressed in HEK293 cells. […] The enzyme expressions were determined by a Western blot analysis. […]
The effect of compounds that inhibited PGE2 production were determined by HPLC. […]
The inhibitory effect on PGE2 production by mPGES-1 was determined by using previously developed HEK293 cells expressing our engineered Enzymelink, COX-2-10aa-mPGES-1.
(In general: In an ELISA, binding on a coated surface is turned into a signal by an enzyme label.)

Experiment [2] deals with PC-3 cells. The experiment in a line: Cancer cell PC-3 migration assay (gap size). The format is cell-based. As to conditions: after 39 hours of culture, compared with NS-398. The procedure:
FIG. 10A-C. Anti-inflammatory and anti-cancer activities in cell cultural conditions. PC-3 migration assay treated with the lead compound #10. FIG. 10A The representative images of the PC-3 migration at 0 hour (left) and 39 hours (right) with DMSO, NS-398, and #10. FIG. 10B The time-course gap size of the PC-3 migration. The gap size was obtained using NIS-element software (NIKON). n=6. FIG. 10C Quantitative and significant analyses.
One day before the experiment, about 8.4×10^6 of PC-3 cells were cultured in 6-well plates with 2 mL of growth medium. A marker line was drawn on the outside plates to identify viewing spots. The medium was pre-warmed, and each treatment (DMSO, NS-398, and #10) was mixed with the medium. The cells were washed with PBS and replaced with 1.5 mL of medium containing a treatment, and observed at 0, 15, 24, and 39-hour points. NIS-element AR 3.0 (Nikon Instruments Inc.) software was used to take images at different time points with 10× magnification, and to measure gap sizes.
Inflammation is a factor that stimulates cell migration and is associated with a wide range of ailments including cancer (29). Inflammatory PGE2 produced by mPGES-1 has been reported to be directly associated with cancer cell migration and development (30-33). […] After 39 hours of culture, the gaps were measured (FIG. 10A) and quantified (FIG. 10B and FIG. 10C). […]

In the case of `Nc1ccc2oc(-c3ccc(C(F)(F)F)cc3)nc2c1` [3-F, 2-[4-(trifluoromethyl)phenyl]-1,3-benzoxazol-5-amine], the “inhibition of inflammatory PGE2 production” value in experiment [1] is “able to inhibit inflammatory PGE2 production with very similar dose-response concentrations of the COX-2 inhibitor”. In addition, in experiment [2], the “inhibition of cancer cell migration within the gaps” value is “very effective inhibition of cancer cell migration”.
For “2-[4-(trimethyl) phenyl]-1,3-benzoxazol-5-amine [3-Methyl]” the same measures were “able to inhibit inflammatory PGE2 production with very similar dose-response concentrations of the COX-2 inhibitor” and “very effective inhibition of cancer cell migration”.
